Results: ChEMBL document CHEMBL4364295, “Discovery of a First-in-Class Receptor Interacting Protein 2 (RIP2) Kinase Specific Clinical Candidate, 2-((4-(Benzo[d]thiazol-5-ylamino)-6-(tert-butylsulfonyl)quinazolin-7-yl)oxy)ethyl Dihydrogen Phosphate, for the Treatment of Inflammatory Diseases” (J Med Chem, 2019)
pIC50: −log10 of the molar value. The source made the active and inactive calls. No cut-off for these calls is given here.

Tests used:
[1] = Prodrug conversion in minipig hepatocytes assessed as 2-(4-(benzo[d]thiazol-5-ylamino)-6-(tert-butylsulfonyl)quinazolin-7-yloxy)acetic acid formation at 20 uM measured after 4 hrs; assay type: ADME, cell-based, Sus scrofa, Hepatocyte; settings: pig
[2] = Prodrug conversion in minipig hepatocytes assessed as benzothiazole ring opening at 20 uM measured after 4 hrs; assay type: ADME, cell-based, Sus scrofa, Hepatocyte; settings: pig
[3] = Prodrug conversion in rat hepatocytes assessed as hydrogenation at 20 uM measured after 4 hrs; assay type: ADME, cell-based, Hepatocyte
[4] = Prodrug conversion in Han Wistar rat brain assessed as 2-((4-(Benzo[d]thiazol-5-ylamino)-6-(tert-butylsulfonyl)quinazolin-7-yl)oxy)ethanol formation at 2 mg/kg, iv administered as infusion for 4 hrs; assay type: ADME, organism-based; settings: in vivo
[5] = Oral bioavailability in Sprague-Dawley rat assessed as 2-((4-(Benzo[d]thiazol-5-ylamino)-6-(tert-butylsulfonyl)quinazolin-7-yl)oxy)ethanol level at 2 mg/kg by LC/MS/MS analysis; assay type: ADME, organism-based; settings: in vivo
[6] = Volume of distribution at steady state in Sprague-Dawley rat assessed as 2-((4-(Benzo[d]thiazol-5-ylamino)-6-(tert-butylsulfonyl)quinazolin-7-yl)oxy)ethanol level at 2 mg/kg, po or 1.1 mg/kg, iv by LC/MS/MS analysis; assay type: ADME, organism-based; settings: in vivo
[7] = Toxicity in Gottingen minipig during 6 week study; parameters: species or system Sus scrofa; settings: pig, in vivo, 1008 h
Toll-like receptor 2 = Toll-like receptor 2 (Homo sapiens, UniProt O60603); assay: Inhibition of TLR2 in HEK293 cells assessed as reduction in Pam2CSK4-induced IL8 production; assay type: cell-based
[8] = Unbound fraction in human blood; assay type: ADME, tissue-based
[9] = Cmax in Sprague-Dawley rat at 20 mg/kg, po using crystalline sample during 7 day dose ranging study by LC/MS/MS analysis; assay type: ADME, organism-based; parameters: dose 20 mg/kg, route oral; settings: in vivo
[10] = Clearance in Beagle dog at 2 mg/kg, po or 1.1 mg/kg, iv by LC/MS/MS analysis; assay type: ADME, organism-based, Canis lupus familiaris; settings: in vivo
[11] = Unbound fraction in minipig blood; assay type: ADME, tissue-based, Sus scrofa; settings: pig
Cricetinae = assay: Displacement of [125I]2-iodomelatonin from hamster MT3 receptor at 10 uM measured after 60 mins by scintillation counting method
[12] = Oral bioavailability in Gottingen minipig at 1 mg/kg by LC/MS/MS analysis; assay type: ADME, organism-based, Sus scrofa; settings: pig, in vivo
[13] = Cmax in Gottingen minipig at 1 mg/kg, po by LC/MS/MS analysis; assay type: ADME, organism-based, Sus scrofa; parameters: dose 1 mg/kg, route oral; settings: pig, in vivo
[14] = biological target: Vascular endothelial growth factor receptor 3 (Homo sapiens) (UniProt P35916); assay: Inhibition of human VEGFR3 at 1 uM using poly[Glu:Tyr] (4:1) as substrate in presence of [gamma-33P]ATP relative to control
[15] = biological target: T1, Interleukin-1 receptor type 1 (Homo sapiens, UniProt P14778); assay: Inhibition of IL1R in human monocytes assessed as reduction in IL1beta-induced TNFalpha production; assay type: cell-based
T1 sequence (P14778 whole entry): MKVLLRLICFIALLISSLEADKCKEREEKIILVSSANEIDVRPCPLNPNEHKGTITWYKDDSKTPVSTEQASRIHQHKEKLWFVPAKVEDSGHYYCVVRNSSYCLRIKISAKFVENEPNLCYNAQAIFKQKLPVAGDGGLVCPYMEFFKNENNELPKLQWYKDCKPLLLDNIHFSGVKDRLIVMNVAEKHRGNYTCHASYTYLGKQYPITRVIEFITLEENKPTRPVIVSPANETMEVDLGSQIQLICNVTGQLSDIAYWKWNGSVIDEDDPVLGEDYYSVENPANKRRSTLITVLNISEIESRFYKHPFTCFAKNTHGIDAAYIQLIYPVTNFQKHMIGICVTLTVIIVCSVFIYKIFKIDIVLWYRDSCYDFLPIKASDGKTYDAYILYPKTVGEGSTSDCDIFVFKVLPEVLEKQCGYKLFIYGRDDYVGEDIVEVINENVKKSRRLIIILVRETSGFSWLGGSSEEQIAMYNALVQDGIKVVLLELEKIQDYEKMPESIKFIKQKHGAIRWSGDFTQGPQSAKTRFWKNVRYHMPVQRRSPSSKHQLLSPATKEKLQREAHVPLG

[16] = Oral bioavailability in Beagle dog at 2 mg/kg by LC/MS/MS analysis; assay type: ADME, organism-based, Canis lupus familiaris; settings: in vivo
[17] = Cmax in Sprague-Dawley rat at 2 mg/kg, po by LC/MS/MS analysis; assay type: ADME, organism-based; parameters: dose 2 mg/kg, route oral; settings: in vivo
[18] = Passive permeability in MDCK cells; assay type: ADME, cell-based, Canis lupus familiaris; settings: dog, read-out: permeability
Toll-like receptor 7 = biological target: T2, Toll-like receptor 7 (Homo sapiens, UniProt Q9NYK1); assay: Inhibition of TLR7 in human monocytes assessed as reduction in gardiquimod-induced IL8 production; assay type: cell-based
T2 sequence (Q9NYK1 whole entry): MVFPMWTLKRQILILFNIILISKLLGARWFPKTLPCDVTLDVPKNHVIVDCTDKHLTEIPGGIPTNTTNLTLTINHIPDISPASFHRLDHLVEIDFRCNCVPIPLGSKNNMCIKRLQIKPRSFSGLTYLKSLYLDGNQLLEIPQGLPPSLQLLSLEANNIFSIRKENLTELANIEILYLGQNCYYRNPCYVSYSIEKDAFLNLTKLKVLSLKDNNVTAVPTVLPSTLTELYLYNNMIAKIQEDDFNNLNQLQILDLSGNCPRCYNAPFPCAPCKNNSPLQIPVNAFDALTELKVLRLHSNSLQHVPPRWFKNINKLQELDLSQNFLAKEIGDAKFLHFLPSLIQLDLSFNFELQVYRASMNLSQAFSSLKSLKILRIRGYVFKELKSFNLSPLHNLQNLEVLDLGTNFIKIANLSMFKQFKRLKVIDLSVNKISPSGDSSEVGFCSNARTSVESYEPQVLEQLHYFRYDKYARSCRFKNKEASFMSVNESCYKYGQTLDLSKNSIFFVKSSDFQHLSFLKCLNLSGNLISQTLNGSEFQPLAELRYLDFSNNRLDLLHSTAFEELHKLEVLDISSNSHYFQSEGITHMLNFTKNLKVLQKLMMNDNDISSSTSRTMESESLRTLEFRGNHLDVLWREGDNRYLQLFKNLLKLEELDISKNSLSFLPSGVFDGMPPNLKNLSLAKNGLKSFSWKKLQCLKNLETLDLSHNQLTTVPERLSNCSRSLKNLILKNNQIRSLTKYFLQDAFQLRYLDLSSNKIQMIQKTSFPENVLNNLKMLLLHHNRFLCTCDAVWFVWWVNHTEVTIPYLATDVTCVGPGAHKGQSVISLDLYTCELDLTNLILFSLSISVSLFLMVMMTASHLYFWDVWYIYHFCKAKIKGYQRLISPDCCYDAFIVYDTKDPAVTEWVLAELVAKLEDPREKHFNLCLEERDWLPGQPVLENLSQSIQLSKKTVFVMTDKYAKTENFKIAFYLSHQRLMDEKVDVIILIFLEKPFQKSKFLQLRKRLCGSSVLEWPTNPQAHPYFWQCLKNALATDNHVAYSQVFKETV

[19] = AUC in Sprague-Dawley rat at 200 mg/kg, po using crystalline sample during 7 day dose ranging study by LC/MS/MS analysis; assay type: ADME, organism-based; settings: in vivo
[20] = Volume of distribution at steady state in Beagle dog at 2 mg/kg, po or 1.1 mg/kg, iv by LC/MS/MS analysis; assay type: ADME, organism-based, Canis lupus familiaris; settings: in vivo, read-out: Vdss

Sequence of Toll-like receptor 2 (O60603 whole entry): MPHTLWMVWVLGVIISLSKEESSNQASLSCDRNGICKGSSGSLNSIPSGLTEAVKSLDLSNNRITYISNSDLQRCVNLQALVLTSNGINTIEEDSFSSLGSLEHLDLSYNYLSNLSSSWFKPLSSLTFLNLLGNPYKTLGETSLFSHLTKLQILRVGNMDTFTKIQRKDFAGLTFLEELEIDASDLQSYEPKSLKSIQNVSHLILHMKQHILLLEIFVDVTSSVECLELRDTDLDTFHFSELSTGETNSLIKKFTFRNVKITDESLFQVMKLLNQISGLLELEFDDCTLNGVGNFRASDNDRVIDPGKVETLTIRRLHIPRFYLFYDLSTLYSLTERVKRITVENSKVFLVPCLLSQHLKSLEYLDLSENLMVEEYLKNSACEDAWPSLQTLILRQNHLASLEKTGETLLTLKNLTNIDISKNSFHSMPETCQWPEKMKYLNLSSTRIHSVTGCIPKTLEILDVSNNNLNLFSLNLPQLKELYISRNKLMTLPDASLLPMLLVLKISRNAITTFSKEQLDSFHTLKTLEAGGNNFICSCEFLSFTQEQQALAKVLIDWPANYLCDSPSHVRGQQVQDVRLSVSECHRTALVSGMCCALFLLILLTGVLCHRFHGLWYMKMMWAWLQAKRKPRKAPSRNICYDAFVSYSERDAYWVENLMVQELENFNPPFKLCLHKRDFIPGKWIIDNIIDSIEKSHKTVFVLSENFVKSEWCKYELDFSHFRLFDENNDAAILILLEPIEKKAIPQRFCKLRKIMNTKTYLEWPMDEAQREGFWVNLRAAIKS
Sequence of Vascular endothelial growth factor receptor 3 (Homo sapiens) (P35916 whole entry): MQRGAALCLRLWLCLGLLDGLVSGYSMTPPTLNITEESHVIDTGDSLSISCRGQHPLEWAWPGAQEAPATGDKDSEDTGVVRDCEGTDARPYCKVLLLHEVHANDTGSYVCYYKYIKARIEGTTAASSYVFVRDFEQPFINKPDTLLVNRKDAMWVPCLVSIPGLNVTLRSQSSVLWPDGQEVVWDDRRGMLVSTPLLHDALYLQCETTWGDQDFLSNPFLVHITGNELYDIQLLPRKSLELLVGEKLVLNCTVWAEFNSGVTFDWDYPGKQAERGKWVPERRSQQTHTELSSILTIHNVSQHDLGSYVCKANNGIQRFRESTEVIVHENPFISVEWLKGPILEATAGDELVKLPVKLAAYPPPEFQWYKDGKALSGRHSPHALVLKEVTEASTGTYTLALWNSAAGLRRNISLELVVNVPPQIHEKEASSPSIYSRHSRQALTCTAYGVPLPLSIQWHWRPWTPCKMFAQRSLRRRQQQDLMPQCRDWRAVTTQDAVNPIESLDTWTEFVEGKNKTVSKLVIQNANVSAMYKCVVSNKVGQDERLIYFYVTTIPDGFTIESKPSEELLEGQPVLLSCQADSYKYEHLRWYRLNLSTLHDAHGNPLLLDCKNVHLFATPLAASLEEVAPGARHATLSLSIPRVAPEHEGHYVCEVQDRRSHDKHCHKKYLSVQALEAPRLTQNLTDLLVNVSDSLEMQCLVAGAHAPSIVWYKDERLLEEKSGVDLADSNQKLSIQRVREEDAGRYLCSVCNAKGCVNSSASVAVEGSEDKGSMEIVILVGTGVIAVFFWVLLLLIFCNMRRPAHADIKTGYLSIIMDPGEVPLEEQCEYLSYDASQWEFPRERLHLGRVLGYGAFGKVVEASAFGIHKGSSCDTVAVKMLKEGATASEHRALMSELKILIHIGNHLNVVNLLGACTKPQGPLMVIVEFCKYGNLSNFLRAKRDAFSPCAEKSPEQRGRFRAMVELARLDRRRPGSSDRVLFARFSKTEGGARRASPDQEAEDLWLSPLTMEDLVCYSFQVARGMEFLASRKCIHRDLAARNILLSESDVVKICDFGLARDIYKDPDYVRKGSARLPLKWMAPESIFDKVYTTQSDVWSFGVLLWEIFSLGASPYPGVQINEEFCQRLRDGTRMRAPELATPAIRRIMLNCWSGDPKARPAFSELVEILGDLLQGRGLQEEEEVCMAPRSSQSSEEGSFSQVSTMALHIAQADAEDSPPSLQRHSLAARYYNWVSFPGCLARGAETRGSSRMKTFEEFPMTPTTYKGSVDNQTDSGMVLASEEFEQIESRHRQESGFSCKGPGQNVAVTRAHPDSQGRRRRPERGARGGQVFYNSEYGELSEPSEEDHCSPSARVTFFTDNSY

Q: With `CC(C)(C)S(=O)(=O)c1cc2c(Nc3ccc4scnc4c3)ncnc2cc1OCCOP(=O)(O)O.[CaH2]` as the compound, how does the Drug metabolism [1] read?
A: Metabolite_Detected

Q: And the Drug metabolism [2]?
A: Metabolite_Detected

Q: And the Drug metabolism [3]?
A: Metabolite_Detected

Q: What about the Drug metabolism [4] of the same compound?
A: Metabolite_Detected

Q: What about the F [5] of the same compound?
A: 77%

Q: What about the Vdss [6] of the same compound?
A: 2.1 L/kg

Q: And the Activity [7]?
A: Non-Toxic

Q: With `CC(C)(C)S(=O)(=O)c1cc2c(Nc3ccc4scnc4c3)ncnc2cc1OCCO` as the compound, how does the pIC50 (Toll-like receptor 2) read?
A: < 5.00

Q: And the fraction unbound [8]?
A: 0.069

Q: And the Cmax [9]?
A: 900 ng/mL

Q: And the clearance [10]?
A: 9.9 mL/min/kg

Q: What about the fraction unbound [11] of the same compound?
A: 0.068

Q: What about the inhibition (Cricetinae) of the same compound?
A: Active

Q: And the F [12]?
A: 26%

Q: And the Cmax [13]?
A: 31 ng/mL

Q: What about the inhibition [14] of the same compound?
A: > 90%

Q: What about the pIC50 [15] of the same compound?
A: < 5.00

Q: What about the bioavailability [16] of the same compound?
A: 57%

Q: What about the Cmax [17] of the same compound?
A: 120 ng/mL

Q: What about the Papp [18] of the same compound?
A: 16.6 ×10⁻⁶ cm/s

Q: What about the pIC50 (Toll-like receptor 7) of the same compound?
A: < 5.00

Q: What about the AUC at 168 h [19] of the same compound?
A: 41400 ng·h/mL

Q: What about the Vd [20] of the same compound?
A: 2.6 L/kg
